Laboratory results taken from patent publication US11213506B2, “Combination therapy for the treatment or prevention of tumours” (QBIOTICS PTY LTD, priority 2017, dated 2022).

Key:
[1] = system: B16-OVA cells; assay: ATP release assay; type: cell-based, mouse; conditions: both concentrations (500 and 300 μM), within 60 minutes
Method: (§1) A431 (human epidermoid carcinoma), MM649 (human melanoma) and B16-OVA (B16-F10 mouse melanoma cell line stably transfected with chicken ovalbumin) were cultured in RPMI-1640, 10% FCS (complete medium) at 37° C., 5% CO2 in a humidified incubator. BMDCs were cultured in R10 media (RPMI, 10% FCS, 2 mM glutamine, 50 μM beta-mercaptoethanol, Pen/Strep). All cell lines used in this study were confirmed as mycoplasma negative using MycoAlert (Lonza). STR profiling was also performed to confirm the identity of the human cell lines used.
Cell lines were plated at a density of 10,000 cells per well into clear 96-well plates (Corning, #3595; 100 μl of complete media) and the resultant plates incubated overnight as previously detailed. The following day, media was aspirated from each well and 50 μl of fresh medium was inserted. Stock solutions of Compounds 1, 2, 3 and 4 were diluted to 2× final assay concentration (1 mM and 600 μM) and 50 μl of these dilutions added to the required wells. Ethanol only control solutions were also compiled and administered. At the indicated timepoints, 80 μl of media was removed, centrifuged at 1,200 rpm for 4 mins to pellet cell debris and 50 μl assayed for ATP using a bioluminescence based ATP assay kit (FLAA, Sigma-Aldrich). Relative luminescence units were recorded for each sample using a Hybrid Synergy H4 plate reader (BioTek).

[2] = system: CD11c+ BMDCs with B16-OVA cells; assay: BMDC uptake of epoxytigliane treated B16-OVA cells; type: cell-based, C57Bl/6 mice
Method: The tibias and […] from four 7-8 week old C57Bl/6 mice were first surgically removed under sterile conditions. The marrow was flushed from the bone cavity with 10 ml of ice cold R10 media (using a 27G needle/syringe into a 50 ml polypropylene tube). Cells were pelleted at 1,500 rpm for 5 mins and washed ×2 with ice cold R10 media. After resuspension of the pellet into 10 ml of ice cold R10 medium, cells were counted using an improved haemocytometer and plated at a density of 2×10^6 cells per plate (petri dish) in 10 ml of R10 supplemented with 20 ng/ml murine GM-CSF. All plates were incubated at 37° C., 5% CO2 and at day 3 an additional 10 ml R10 with 20 ng/ml GM-CSF was added. Cells were again fed at day 6 and used for downstream assays on day 7.
Prior to co-incubation with BMDCs, B16-OVA cells were trypsinised, centrifuged at 1,200 rpm for 4 mins to pellet cells and washed ×2 with complete medium. Cells were then stained with 2 μM Cell Tracker Green in complete medium for 45 mins, after which they were pelleted and washed ×2 as above. Labelled B16-OVA cells were subsequently treated with Compounds 1, 2, 3 and 4 at two concentrations (500 or 300 μM) in media at a density of 1×10^6 cells/ml for 30 and 60 mins, after which cells were pelleted via centrifugation, supernatant removed via aspiration and the cell pellet washed ×1 with complete media. After the wash, the treated cells were resuspended in R10 media, inserted into the wells of a 6-well plate (Corning, #3471. Ultra low attachment surface) and BMDCs added. Co-cultures were incubated for 4 h after which cell suspensions were transferred to a microfuge tube and centrifuged at 1,500 rpm for 5 mins. Pellets were resuspended in 100 μl FACs buffer containing anti-CD11c-APC and incubated for 10 mins at 4° C. Cells were again pelleted, washed ×1 with FACs buffer and then fixed using PBS, 1% formaldehyde for 10 mins. After centrifugation and removal of the supernatant, cells were resuspended in 500 μl FACs buffer in preparation for flow cytometry.
Samples were first gated by FSC-H v FSC-A, then SSC-H v SS-A to identify single cells. The proportion of CD11c^+ cells (Ex: 640 nm, Em: 670/14) with CMFDAmid (Ex: 488 nm, Em: 530/30) were then determined for treated and untreated cells as a percentage of all CD11c^+ cells.

[3] = system: B16-OVA cells; assay: Lactate dehydrogenase (LDH) release assay; type: cell-based, mouse; conditions: 300 μM and 500 μM
Method: as §1, with “melanoma),” for “melanoma) and”, “ovalbumin), MM415 (human melanoma) and FaDu (human hypopharyngeal carcinoma) cells” for “ovalbumin)”, “incubator.” for “incubator. BMDCs were cultured in R10 media (RPMI, 10% FCS, 2 mM glutamine, 50 μM beta-mercaptoethanol, Pen/Strep).”
Measuring the release of LDH is a well-recognised assay to assess plasma membrane permeabilisation and detect cell death by necrosis (Chan et al. 2013). Three cell lines (A431, MM649 and B16-OVA) were used in these assays. Cells were plated at a density of 10,000 cells per well into clear 96-well plates (Corning, #3595; 100 μl of complete media) and the resultant plates incubated overnight as previously detailed. The following day, media was aspirated from each well and 50 μl of fresh medium was inserted. Stock solutions of Compound 1 were diluted to 2× final assay concentrations (1 mM and 600 μM) and 50 μl of these dilutions added to the required wells. […] OD490 nm and OD690 nm readings were recorded for each sample using a Hybrid Synergy H4 plate reader. Absorbance readings from drug treated samples were normalized to detergent treated controls to determine the % LDH release per well.

Question: How did the ATP release [1] turn out when C/C=C(\C)C(=O)O[C@@H]1[C@@H](C)[C@@]2(O)[C@H]([C@@H]3C(C)(C)[C@]13OC(=O)[C@@H](C)CC)[C@@H]1O[C@]1(CO)[C@@H](O)[C@]1(O)C(=O)C(C)=C[C@H]12 [Compound 1, 12-tigloyl-13-(2-methylbutanoyl)-6,7-epoxy-4,5,9,12,13,20-hexahydroxy-1-tiglien-3-one] was run?
Answer: significant release of ATP

Question: What about the “dependence of antigen uptake on concentration and treatment time” value ([2]; 500 μM compared to the use of 300 μM) of the same compound?
Answer: antigen uptake occurs to a greater extent after a shorter treatment time

Question: What about the “uptake of dying cancer cell fragments by CD11c+ dendritic cells/macrophages (BMDCs)” value ([2]; B16-OVA treated at 500 or 300 μM for 30 and 60 mins, 4 h co-culture) of the same compound?
Answer: promotes the uptake

Question: What about the “LDH release compared to the controls” value [3] of the same compound?
Answer: significant release of LDH
